Test results as given in patent US20220218614A1, “IONIZABLE CATIONIC LIPIDS AND LIPID NANOPARTICLES, AND METHODS OF SYNTHESIS AND USE THEREOF” (Tidal Therapeutics, Inc., priority 2020, published 2022).
“Also recorded” adds a separate entry of the source.

Legend:
Type in all cases: physicochemical
[1] = Hydrodynamic diameter and polydispersity of LNPs by dynamic light scattering (DLS), Zetasizer
Procedure: (§1) Samples of the LNPs produced in Example 2 were characterized to determine the average hydrodynamic diameter, zeta potential, and mRNA content (total and dye-accessible). The hydrodynamic diameter was determined by dynamic light scattering (DLS) using a Zetasizer model ZEN3600 (Malvern Pananalytical, UK). The zeta potential was measured in 5 mM pH 5.5 MES buffer and 5 mM pH 7.4 HEPES buffer by laser Doppler electrophoresis using the Zetasizer.

[2] = Quant-iT RiboGreen RNA assay: dye accessible and total (Triton) mRNA content, encapsulation
Procedure: RNA content of the nanoparticles is measured using Thermo Fisher Quant-iT RiboGreen RNA Assay Kit. Dye accessible RNA, which includes both non-incorporated RNA and RNA that is near the surface of the nanoparticle, is measured by diluting the nanoparticles to approximately 1 μg/mL mRNA using HEPES buffered saline, and then adding Quant-iT reagent to the mixture. Total RNA content is measured by diluting the particles to 1 μg/mL mRNA using HEPES buffered saline, disrupting the nanoparticles by heating them to 60° C. for 30 minutes in HEPES buffered saline containing 0.5% Triton, and then adding Quant-It reagent. RNA is quantified by measuring fluorescence at 485/535 nm, and concentration is determined relative to a contemporaneously run RNA standard curve.

[3] = Zeta potential of LNPs by laser Doppler electrophoresis in 5 mM pH 5.5 MES and 5 mM pH 7.4 HEPES buffer; settings: pH 5.5 MES and pH 7.4 HEPES buffer
Procedure: as §1

[4] = Table 10: Lipid 5 and Lipid 7 LNP, theoretical total mRNA 50 μg/mL

CCCCC/C=C\C/C=C\CCCCCCCC(=O)OC[C@H](CCN(C)C)OC(=O)CCCCCCC/C=C\C/C=C\CCCCC [Lipid 5]
polydispersity after antibody conjugate insertion [1]: < 0.15
change in particle size and PDI upon conjugate insertion ([1]; insertion of anti-CD3 hSP34-PEG2k-DSPE conjugate): larger change in hydrodynamic diameter (relative to Lipid 7 LNP); also recorded: larger change in hydrodynamic diameter (relative to Lipid 8 LNP)
% Dye Accessible mRNA ([2]; Table 10: Lipid 5 and Lipid 7 LNP): 23%
Measured total (Triton method) mRNA [2, 4]: 43 µg/mL
Ribogreen Dye Accessible mRNA [2, 4]: 10 µg/mL
Measured total (Triton method) mRNA ([2]; Table 11A: Lipid 5, Lipid 8 and DLn-MC3-DMA LNP, vortexer mixing, theoretical total mRNA 42.5 ug/mL): 27 µg/mL
Ribogreen Dye Accessible mRNA ([2]; Table 11A: vortexer mixing, theoretical total mRNA 42.5 ug/mL): 4 µg/mL
LNP surface charge (zeta potential), in words [3]: positive zeta potential at pH 5.5, and either near neutral or slightly negative charge at pH 7.4
